{"source": "patent US20180353524A1", "about": "“CANCER TREATMENT USING 2-DEOXY-2-FLUORO-L-FUCOSE IN COMBINATION WITH A CHECKPOINT INHIBITOR” (SEATTLE GENETICS, INC., priority 2015, published 2018)", "key": {"[1]": {"system": "Galectin-3", "assay": "Activated T-cell expression of Galectin-3 (FACS)", "assay_type": "cell-based, human", "conditions": "CD3/CD28 activated T-cells, overnight", "description": "Purified T-cells were plated in 12-well plates (10^6 cells/well, 1-2 mL T-cell medium) and were activated with CD3/CD28 beads (4 μL beads/2 mL media, Miltenyi Biotec). Cells were incubated at 37° C. overnight and were then analyzed for Galectin-3 expression after fixation and permeabilization followed by FACS analysis."}, "[2]": {"system": "T-cells (TCR binding of antigen specific tetramers)", "assay": "Tetramer staining of T-cells", "assay_type": "cell-based, human", "conditions": "T-cells expanded with 100 μM"}, "[3]": {"system": "dendritic cells", "assay": "DC markers in co-cultures of T-cells and DCs (FACS)", "assay_type": "cell-based, human", "description": "T-cells were isolated from 10 mL of whole blood which was centrifuged first at 1200 rpm (300×g) for 10 min (without brakes). The top layer containing platelets was removed carefully without disrupting the white blood cell layer. Then RosetteSep™ Human T-Cell Enrichment Cocktail (Pan T-cells from StemCell technologies, Vancouver, BC) was added to the remaining blood (500 μL/10 mL blood). This was incubated for 20 min and then 1 mL FBS was added along with 10 mL PBS. Histopaque (20-25 mL) placed in a 50 mL Falcon the prepared blood/PBS solution was overlaid very slowly. This was centrifuged with no brake (25° C., 1500 rpm, 25 min). The top layer was removed and the T-cells in the buffy coat layer were then removed to a new 50 mL tube. The T-cells were washed with PBS, resuspended in 1 mL ACK lysis buffer and topped up to 25 mL, incubated for 5 min, brought up to 50 mL with PBS, and then pelleted. This red blood cell lysis step was repeated a second time.\nPBMCs were isolated similarly to the T-cells, except that 90 mL of blood were used and after the removal of platelets the RosetteSep™ Human T-Cell Enrichment Cocktail was not added, instead an equal volume of PBS (90 mL) was added before overlaying on Histopaque. Centrifugation over Histopaque as above results in PBMC-containing buffy coat.\nDCs (20000-30000/well) and 10 times as many T-cells were plated in each well in a total of 200 μL/well in DC medium. Co-cultures were incubated 24 h after which cells evaluated for DC maturation markers as described below.\nTranswell assays were performed in 24-well plates. Co-cultures were plated out as described above with the final volume per well of 500 μL. For the transwell samples DCs were plated in the well and T-cells placed into the insert. The cells were then incubated 24 h and examined in the same manner as co-cultures without transwells.\nDCs were grown as described until day 8 when there were split into two flasks, one with normal media and the other in serum free media. While no serum was present, X-VIVO™ 15 media contains growth factors which help maintain the health of the cultures. The co-culture experiment was performed as above in 48-well plates.\nCo-cultures were examined using FACS analysis. After incubation, cells were washed in BD stain buffer (BSA) with Human Fc block (EMD Millipore) and incubated on ice for 30 min. Cells were then stained with fluorescently labeled anti-MHCII, anti-CD86, anti-CD83, and anti-CD40 primary antibodies (BD, 1:100 or 1:50 in BD stain buffer (BSA)) or with appropriate isotype controls (ice, dark, 40 min). Cells were then washed twice in BD stain buffer (BSA) and analyzed on an LSRII flow cytometer."}, "[4]": {"system": "A20 tumor cells", "assay": "A20 mouse lymphoma study, survival", "assay_type": "in vivo, BALB/c mice", "description": "A20 cells (ATCC) were cultured in RPMI 1640 with 10% FBS, 10 mM HEPES, 1 mM sodium pyruvate, 50 μM 2-mercaptoethanol and penicillin (100 U/ml)/streptomycin (100 μg/ml) (PS). All mice (BALB/c, n=6/group) were implanted with 1×10^5 A20 tumor cells (i.v.) and were divided into four groups: untreated; treated with 2FF only; treated with anti-PD1 antibody only; and treated with a combination of 2FF with anti-PD1 antibody. 2FF treatment groups received drinking water containing 20 mM 2FF beginning on the day of tumor implantand continued throughout the study. Mice not receiving 2FF were provided with normal drinking water. Anti-PD1 antibody (Ebiosciences, clone J43) treatment groups received three doses of 5 mg/kg every three days starting on day 5 post tumor implant. […] This is compared to only 17% survival in the untreated and the anti-PD1 alone treated groups after about 40 days of treatment lasting to the end of the experiment, and also compared to only 17% survival in 2FF alone treated group after 70 days of treatment also lasting to the end of the experiment at ˜90 days."}, "[5]": {"system": "ZAP70", "assay": "TCR signaling, pZAP70 western blot in CD3/CD28 activated T-cells", "assay_type": "cell-based, human", "conditions": "CD3/CD28 bead activation 0-4 h, pZAP70 normalized to ZAP70", "description": "Purified T-cells were plated in 6-well plates (2.5×10^6 cells/well, 2.5 mL T-cell medium) and were activated with CD3/CD28 beads (20 μL beads/well, Miltenyi Biotec, San Diego, Calif.) at 37 ° C. for 0-4 h. At the indicated time, samples were then harvested, washed in PBS, lysed with RIPA buffer (Thermo Scientific, containing DNAse and protease/phosphatase inhibitors), and snap frozen on dry ice followed by storage at −80 ° C. Cell lysates (˜3 μg/sample determined by BCA assay) were run on SDS-PAGE and examined by western blot on nitrocellulose membranes with anti-pZAP70 antibody (Cell Signaling Technologies). Briefly, blots were blocked for 1 h at room temperature in 5% milk in TBST (TBST from Cell Signling Technologies), rinsed with TBST and then incubated with primary antibody (anti-pZAP70 1:1000 in 5% BSA in TBST) at 4 ° C. overnight. Blots were washed 3× with TBST and probed with HRP-conjugated secondary antibodies for 1 hr at RT (1:2000 in 5% non-fat milk in TBST) followed by washing (3×TBST) and detection using Cell Signaling Elite ECL as per manufacturer instructions. Blots were scanned using an Amersham™ 600 imager (GE Healthcare). Once imaged, blots could be stripped and reprobed for additional markers using other primary antibodies. […]"}}, "data": [{"smiles": "C[C@@H]1OC(O)[C@@H](F)[C@H](O)[C@@H]1O", "note": "(stereo partly drawn) [2-deoxy-2-fluoro-L-fucose]", "values": [{"measurement": "galectin-3 levels in T-cells", "setting": "[1]", "value": "reduction in galectin-3 levels"}, {"measurement": "EBV-specific tetramer binding to treated T-cells vs control cells (flow cytometry)", "setting": "[2]", "value": "increase in EBV-specific tetramer binding"}, {"measurement": "tetramer binding with other antigens (flu, CMV) to treated T-cells vs control cells", "setting": "[2]", "value": "slight increases"}, {"measurement": "DC activation and maturation markers, DCs alone", "setting": "[3]; DCs alone, with or without treatment", "value": "do not show changes in these markers"}, {"measurement": "DC activation and maturation markers MHCII, CD86, CD83 and CD40 (MFI vs control co-culture)", "setting": "[3]; DCs co-cultured 24 h with autologous T-cells expanded with 100-200 μM, serum-containing medium", "value": "increases in the DC activation and maturation markers MHCII, CD86, CD83 and CD40"}, {"measurement": "DC activation and maturation markers, transwell co-culture", "setting": "[3]; T-cells and DCs separated by transwell inserts", "value": "do not occur when transwell inserts are used"}, {"measurement": "DC activation and maturation markers, serum-free co-culture", "setting": "[3]; serum-free medium (no antigen)", "value": "does not provide the same increases"}, {"measurement": "survival compared to the untreated group", "setting": "[4]; BALB/c mice, i.v. A20 cells, 20 mM 2FF in drinking water, anti-PD1 5 mg/kg q3dx3 from day 5", "value": "increased survival compared to the untreated group"}, {"measurement": "survival of the mice", "setting": "[4]; after 70 days of treatment lasting to end of experiment at ~90 days, 20 mM 2FF drinking water", "value": 17, "unit": "%"}, {"measurement": "Zap70 phosphorylation in treated T-cells compared to naive cells", "setting": "[5]", "value": "significantly more phosphorylated and remains phosphorylated for a longer period of time"}]}]}
